# Assay results as given in patent US10913733B2, “Substituted piperidines thiazolyl acetamides as glycosidase inhibitors and uses thereof” (priority 2015, dated 2021).
# Molecular target: human O-GlcNAcase (Homo sapiens (Human), UniProt O60502)
# Assay: Assay for determination of KI values for inhibition of O-GlcNAcase activity
# Type: biochemical
# Settings: purified human O-GlcNAcase 0.7 nM; substrate 2 mM 4-Methylumbelliferyl N-acetyl-β-D-glucosaminide; pH 7.0; room temperature; Cheng-Prusoff; read-out: hOGA Ki
# Description: Assay for Determination of KI Values for Inhibition of O-GlcNAcase Activity
# Experimental procedure for kinetic analyses: Enzymatic reactions were carried out in a reaction containing 50 mM NaH2PO4, 100 mM NaCl and 0.1% BSA (pH 7.0) using 2 mM 4-Methylumbelliferyl N-acetyl-β-D-glucosaminide dihydrate (Sigma M2133) dissolved in ddH2O, as a substrate. The amount of purified human O-GlcNAcase enzyme used in the reaction was 0.7 nM. Test compound of varying concentrations was added to the enzyme prior to initiation of the reaction. The reaction was performed at room temperature in a 96-well plate and was initiated with the addition of substrate. The production of fluorescent product was measured every 60 sec for 45 min with a Tecan Infinite M200 plate-reader with excitation at 355 nm and emission detected at […], with 4-Methylumbelliferone (Sigma M1381) used to produce a standard curve. The slope of product production was determined for each concentration of compound tested and plotted, using standard curve fitting algorithms for sigmoidal dose response curves. The values for a four parameter logistic curve fit of the data were determined. KI values were determined using the Cheng-Prusoff equation; the Km of O-GlcNAcase for substrate was 0.2 mM.
# Sequence of human O-GlcNAcase (O60502 whole entry): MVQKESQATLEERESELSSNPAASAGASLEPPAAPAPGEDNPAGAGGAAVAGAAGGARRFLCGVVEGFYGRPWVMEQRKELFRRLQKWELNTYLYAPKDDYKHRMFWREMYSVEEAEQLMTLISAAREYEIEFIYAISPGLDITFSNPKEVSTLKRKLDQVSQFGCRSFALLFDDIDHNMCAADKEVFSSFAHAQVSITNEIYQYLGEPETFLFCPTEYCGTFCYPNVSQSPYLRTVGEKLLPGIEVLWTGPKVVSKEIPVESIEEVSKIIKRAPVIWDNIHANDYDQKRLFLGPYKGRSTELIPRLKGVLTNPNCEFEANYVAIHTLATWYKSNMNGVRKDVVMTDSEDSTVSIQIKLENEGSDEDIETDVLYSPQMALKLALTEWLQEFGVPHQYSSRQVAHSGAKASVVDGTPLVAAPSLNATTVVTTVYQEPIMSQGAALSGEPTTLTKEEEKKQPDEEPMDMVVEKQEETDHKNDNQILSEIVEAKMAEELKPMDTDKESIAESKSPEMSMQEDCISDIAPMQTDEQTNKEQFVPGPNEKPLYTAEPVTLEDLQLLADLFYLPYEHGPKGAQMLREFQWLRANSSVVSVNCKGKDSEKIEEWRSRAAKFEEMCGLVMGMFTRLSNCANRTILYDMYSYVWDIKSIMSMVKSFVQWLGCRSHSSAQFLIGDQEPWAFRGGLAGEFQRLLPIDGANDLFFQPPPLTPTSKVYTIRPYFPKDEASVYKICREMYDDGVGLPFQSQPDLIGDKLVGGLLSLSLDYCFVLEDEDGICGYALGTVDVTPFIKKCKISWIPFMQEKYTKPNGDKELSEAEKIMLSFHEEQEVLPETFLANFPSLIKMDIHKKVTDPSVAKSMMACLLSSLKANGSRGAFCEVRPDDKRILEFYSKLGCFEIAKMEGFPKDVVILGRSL
row,Compound,Ki [nM]
1,"COc1ccc(/C=C2\CCN(Cc3cnc(NC(C)=O)s3)[C@@H](C)C2)cc1 [Example 41, (S,E)-N-(5-((4-(4-methoxybenzylidene)-2-methylpiperidin-1-yl)methyl)thiazol-2-yl)acetamide]",9.61
2,"CC(=O)Nc1ncc(CN2CCC(=Cc3ccc(OCCF)cc3)CC2)s1 [Example 42, N-{5-[(4-{[4-(2-fluoroethoxy)phenyl]methylidene}piperidin-1-yl)methyl]-1,3-thiazol-2-yl}acetamide]",0.625
3,"COc1cccc(C=C2CCN(Cc3cnc(NC(C)=O)s3)CC2)c1 [Example 43, N-(5-((4-(3-methoxybenzylidene)piperidin-1-yl)methyl)thiazol-2-yl)acetamide]",2.93
4,"CC(=O)Nc1ncc(CN2CCC(=Cc3cccc(O)c3)CC2)s1 [Example 44, N-(5-((4-(3-hydroxybenzylidene)piperidin-1-yl)methyl)thiazol-2-yl)acetamide]",1.13
5,"C=CCOc1ccc(C=C2CCN(Cc3cnc(NC(C)=O)s3)CC2)cc1 [Example 45, N-{5-[(4-{[4-(prop-2-en-1-yloxy)phenyl]methylidene}piperidin-1-yl)methyl]-1,3-thiazol-2-yl}acetamide]",6.11
6,"COc1ccc(C=C2CCN(Cc3cnc(NC(C)=O)s3)CC2)cc1 [Example 46, N-[5-({4-[(4-methoxyphenyl)methylidene]piperidin-1-yl}methyl)-1,3-thiazol-2-yl]acetamide]",2
7,"COc1ccccc1C=C1CCN(Cc2cnc(NC(C)=O)s2)CC1 [Example 47, N-(5-((4-(2-methoxybenzylidene)piperidin-1-yl)methyl)thiazol-2-yl)acetamide]",2.45
8,"CC(=O)Nc1ncc(CN2CCC(=Cc3ccc(-c4ccccc4)cc3)CC2)s1 [Example 48, N-(5-((4-([1,1′-biphenyl]-4-ylmethylene)piperidin-1-yl)methyl)thiazol-2-yl)acetamide]",53.8
9,CC(=O)Nc1ncc(CN2CCC(=Cc3ccc([N+](=O)[O-])nc3)CC2)s1 [Example 49],1.6
10,"CC(=O)Nc1ncc(CN2CCC(=Cc3ccc(CCO)cc3)CC2)s1 [Example 50, N-(5-((4-(4-(2-hydroxyethyl)benzylidene)piperidin-1-yl)methyl)thiazol-2-yl)acetamide]",0.241
11,"CC(=O)Nc1ncc(CN2CC/C(=C/c3ccc(F)nc3)C[C@H]2C)s1 [Example 51, (R,Z)—N-(5-((4-((6-fluoropyridin-3-yl)methylene)-2-methylpiperidin-1-yl)methyl)thiazol-2-yl)acetamide]",218
12,"CC(=O)Nc1ncc(CN2CC/C(=C/c3ccc(F)nc3)C[C@@H]2C)s1 [Example 52, (S,Z)—N-(5-((4-((6-fluoropyridin-3-yl)methylene)-2-methylpiperidin-1-yl)methyl)thiazol-2-yl)acetamide]",0.389
13,"CC(=O)Nc1ncc(CN2CC/C(=C\c3ccc(F)nc3)C[C@H]2C)s1 [Example 53, (R,E)-N-(5-((4-((6-fluoropyridin-3-yl)methylene)-2-methylpiperidin-1-yl)methyl)thiazol-2-yl)acetamide]",123
14,"CC(=O)Nc1ncc(CN2CC/C(=C\c3ccc(F)nc3)C[C@@H]2C)s1 [Example 54, (S,E)-N-(5-((4-((6-fluoropyridin-3-yl)methylene)-2-methylpiperidin-1-yl)methyl)thiazol-2-yl)acetamide]",11.8
